Measurements taken from patent US20240067632A1, “WEE1 Degrading Compounds and Uses Thereof” (Bristol-Myers Squibb Company, priority 2022, published 2024).
Read-outs that look alike come from different tables or passages of the source.

Legend:
MKN45 cells = assay: MKN45 cell proliferation assay (Cell-Titer-Glo, 120 h); assay type: cell-based; settings: for EC50: Homo sapiens, MKN-45, 120 h, Cell-Titer-Glo, read-out: MKN45 Cell Prolif. 120 hr (EC50); for MKN45 Cell Prolif. 120 hr (Ymin-Obs): minimal percent of DMSO control observed in the concentrations tested
Summary of the method: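 Growth inhibition was read as blank-corrected Cell-Titer-Glo luminescence expressed as percent DMSO control after 120 h at 37 C, 400 cells/well. Compounds tested in triplicate as 10-point half-log series from 1 or 10 uM, 0.1% DMSO; four-parameter fit gave EC50, and lowest observed percent control was reported as Ymin-obs.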

WEE1 = target: T1, WEE1 (Homo sapiens, UniProt P30291+Q96SW2); assay: WEE1-ePL degradation assay (LentiX-WEE1-ePL-GSPT1-ND cells, InCELL Hunter luminescence, 4 h); assay type: cell-based; settings: 293T-LentiX WEE1-ePL cells; for DC50: read-out: 293T-LentiX WEE1-ePL Degradation 4 hr (EC50)
T1 construct: C-terminal ePL-tagged (DiscoverX, Fremont, CA) full-length WEE1 expression construct; expressed in transfected cells; host or cells: LentiX-HEK293T (Invitrogen), lentiviral transduction; co-expressing GSPT1-GN (G576N, lacking the first 158 amino acids)
Summary of the method: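 LentiX-HEK293T cells stably expressing C-terminally ePL-tagged full-length WEE1 were treated with compounds in a 10-point, 3-fold dilution series starting at 1 uM or 10 uM for 4 h at 37 °C. Remaining WEE1-ePL was detected by InCELL Hunter luminescence, and EC50, Ymin and Ymax came from a four-parameter logistic fit against DMSO control.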

[1] = lower limit of the fit (0 = luciferase inhibitor, Ymax = DMSO control)
[2] = lower limit of the fit (Ymin=0 luciferase inhibitor, Ymax DMSO control)

Row | Compound | EC50 (MKN45 cells; growth inhibition) | MKN45 Cell Prolif. 120 hr (Ymin-Obs) (MKN45 cells) | 293T-LentiX WEE1-ePL Degradation 4 hr (Ymin) (WEE1; [1]) | DC50 (WEE1) | EC50 (MKN45 cells) | 293T-LentiX WEE1-ePL Degradation 4 hr (Ymin) (WEE1; [2])
1 | O=C1CCC(N2Cc3cc(O[C@H]4CCN(Cc5cnc6ccc(F)c(F)c6c5)C4)ccc3C2=O)C(=O)N1 (stereo partly drawn) [3-(5-{[(3S)-1-[(5,6-difluoroquinolin-3-yl)methyl]pyrrolidin-3-yl]oxy}-1-oxo-2,3-dihydro-1H-isoindol-2-yl)piperidine-2,6-dione] | 166 nM | 44.73 | 43.98 | 13.3 nM |  | 
2 | O=C1CCC(N2Cc3cc(O[C@H]4CCN(Cc5ccc6nc(CO[C@@H]7CCOC7)ccc6c5)C4)ccc3C2=O)C(=O)N1 (stereo partly drawn) [3-(1-oxo-5-{[(3S)-1-[(2-{[(3R)-oxolan-3-yloxy]methyl}quinolin-6-yl)methyl]pyrrolidin-3-yl]oxy}-2,3-dihydro-1H-isoindol-2-yl)piperidine-2,6-dione] | 2.62 nM | 6.56 | 30 | 4.51 nM |  | 
3 | O=C1CCC(N2Cc3cc(O[C@H]4CCN(Cc5ccc6nc(C(F)(F)F)ccc6c5)C4)ccc3C2=O)C(=O)N1 (stereo partly drawn) [3-(1-oxo-5-{[(3S)-1-{[2-(trifluoromethyl)quinolin-6-yl]methyl}pyrrolidin-3-yl]oxy}-2,3-dihydro-1H-isoindol-2-yl)piperidine-2,6-dione] | 7.29 nM | 8.76 | 24.72 | 5.42 nM |  | 
4 | CN(C)C1CCN(c2ccc3cc(CN4CC[C@H](Oc5ccc6c(c5)CN(C5CCC(=O)NC5=O)C6=O)C4)ccc3n2)CC1 (stereo partly drawn) [3-(5-{[(3S)-1-({2-[4-(dimethylamino)piperidin-1-yl]quinolin-6-yl}methyl)pyrrolidin-3-yl]oxy}-1-oxo-2,3-dihydro-1H-isoindol-2-yl)piperidine-2,6-dione] |  | 15.14 |  | 26.2 nM | 19.7 nM | 32.07
5 | O=C1CC[C@H](N2Cc3cc(O[C@H]4CCN(Cc5cc6ccc(C7CCOCC7)cc6cn5)C4)ccc3C2=O)C(=O)N1 [(3S)-3-(5-{[(3S)-1-{[7-(oxan-4-yl)isoquinolin-3-yl]methyl}pyrrolidin-3-yl]oxy}-1-oxo-2,3-dihydro-1H-isoindol-2-yl)piperidine-2,6-dione] | 1.82 nM | 8.913 | 33.42 | 0.844 nM |  | 
6 | O=C1CCC(N2Cc3cc(O[C@H]4CCN(Cc5cnc6ncccc6c5)C4)ccc3C2=O)C(=O)N1 (stereo partly drawn) [3-(5-{[(3S)-1-[(1,8-naphthyridin-3-yl)methyl]pyrrolidin-3-yl]oxy}-1-oxo-2,3-dihydro-1H-isoindol-2-yl)piperidine-2,6-dione] | 547 nM | 12.27 | 27.365 | 70.6 nM |  | 
7 | O=C1CC[C@H](N2Cc3cc(O[C@H]4CCN(Cc5cc(C(F)(F)F)c6nc(N7CCOCC7)ncc6c5)C4)ccc3C2=O)C(=O)N1 [(3S)-3-(5-{[(3S)-1-{[2-(morpholin-4-yl)-8-(trifluoromethyl)quinazolin-6-yl]methyl}pyrrolidin-3-yl]oxy}-1-oxo-2,3-dihydro-1H-isoindol-2-yl)piperidine-2,6-dione] |  | 3.502 |  | 1.8 nM | 8.91 nM | 33.06
8 | O=C1CCC(N2Cc3cc(O[C@H]4CCN(Cc5cc6ccccc6cn5)C4)c(F)cc3C2=O)C(=O)N1 (stereo partly drawn) [3-(6-fluoro-5-{[(3S)-1-[(isoquinolin-3-yl)methyl]pyrrolidin-3-yl]oxy}-1-oxo-2,3-dihydro-1H-isoindol-2-yl)piperidine-2,6-dione] | 53.7 nM | 7.57 | 34 | 10.6 nM |  | 
9 | CC1(C)C[C@@H](c2ncc3cc(CN4CC[C@H](Oc5ccc6c(c5)CN([C@H]5CCC(=O)NC5=O)C6=O)C4)ccc3n2)CCO1 [(3S)-3-(5-{[(3S)-1-({2-[(4S)-2,2-dimethyloxan-4-yl]quinazolin-6-yl}methyl)pyrrolidin-3-yl]oxy}-1-oxo-2,3-dihydro-1H-isoindol-2-yl)piperidine-2,6-dione] |  | 8.718 |  | 24.9 nM | 7.77 nM | 26.33
10 | Cc1ccc2cc(CN3CC[C@H](Oc4ccc5c(c4)CN(C4CCC(=O)NC4=O)C5=O)C3)cc(C)c2n1 (stereo partly drawn) [3-(5-{[(3S)-1-[(2,8-dimethylquinolin-6-yl)methyl]pyrrolidin-3-yl]oxy}-1-oxo-2,3-dihydro-1H-isoindol-2-yl)piperidine-2,6-dione] | 55.5 nM | 13.61 | 29.33 | 6.44 nM |  | 
11 | Cc1cccc2ncc(CN3CC[C@H](Oc4ccc5c(c4)CN(C4CCC(=O)NC4=O)C5=O)C3)cc12 (stereo partly drawn) [3-(5-{[(3S)-1-[(5-methylquinolin-3-yl)methyl]pyrrolidin-3-yl]oxy}-1-oxo-2,3-dihydro-1H-isoindol-2-yl)piperidine-2,6-dione] | 37 nM | 12.09 | 26.805 | 5.31 nM |  | 
12 | O=C1CCC(N2Cc3cc(O[C@H]4CCN(Cc5ccc6nc([C@H]7CC[C@@H](O)CC7)ccc6c5)C4)ccc3C2=O)C(=O)N1 (stereo partly drawn) [3-(1-oxo-5-{[(3S)-1-({2-[(1s,4s)-4-hydroxycyclohexyl]quinolin-6-yl}methyl)pyrrolidin-3-yl]oxy}-2,3-dihydro-1H-isoindol-2-yl)piperidine-2,6-dione] | 0.329 nM | 7.956 | 33 | 1.03 nM |  | 
13 | N#Cc1ccc2cc(CN3CC[C@H](Oc4cc5c(cc4F)C(=O)N(C4CCC(=O)NC4=O)C5)C3)ccc2n1 (stereo partly drawn) [6-{[(3S)-3-{[2-(2,6-dioxopiperidin-3-yl)-6-fluoro-1-oxo-2,3-dihydro-1H-isoindol-5-yl]oxy}pyrrolidin-1-yl]methyl}quinoline-2-carbonitrile] | 23.8 nM | 8.55 | 30.5 | 5.28 nM |  | 
14 | N#Cc1nc2ccccc2cc1CN1CC[C@H](Oc2ccc3c(c2)CN(C2CCC(=O)NC2=O)C3=O)C1 (stereo partly drawn) [3-{[(3S)-3-{[2-(2,6-dioxopiperidin-3-yl)-1-oxo-2,3-dihydro-1H-isoindol-5-yl]oxy}pyrrolidin-1-yl]methyl}quinoline-2-carbonitrile] | 5.83 nM | 6.985 | 29 | 1.2 nM |  | 
15 | Cc1ccc2cc(CN3CC[C@H](Oc4ccc5c(c4)CN(C4CCC(=O)NC4=O)C5=O)[C@H]3C)ccc2n1 (stereo partly drawn) [3-(5-{[(2R,3S)-2-methyl-1-[(2-methylquinolin-6-yl)methyl]pyrrolidin-3-yl]oxy}-1-oxo-2,3-dihydro-1H-isoindol-2-yl)piperidine-2,6-dione] | 339 nM | 28.935 | 34 | 16.7 nM |  | 
16 | O=C1CCC(N2Cc3cc(O[C@H]4CCN(Cc5cc6c(cn5)OCCC6)C4)ccc3C2=O)C(=O)N1 (stereo partly drawn) [3-(1-oxo-5-{[(3S)-1-({2H,3H,4H-pyrano[2,3-c]pyridin-6-yl}methyl)pyrrolidin-3-yl]oxy}-2,3-dihydro-1H-isoindol-2-yl)piperidine-2,6-dione] | 153 nM | 12.988 | 33 | 12.3 nM |  | 
